Experimental data as given in patent publication US5185442A, “New diazepines substituted in the 6-position, processes for their preparation and their use as pharmaceutical compositions” (Boehringer Ingelheim KG, priority 1991, dated 1993).

Target: T1, PAF receptor (vital human blood platelets) (Homo sapiens, UniProt P25105)
T1 construct: endogenous in cells; host or cells: vital human blood platelets (thrombocytes) from blood samples of healthy donors, purified on Sepharose CL-2B
Assay: [3H]PAF receptor binding to vital human blood platelets
Details: [3H]PAF 30 pmolar, 90 minutes, ambient temperature, Ki calculated from IC50
Procedure: [^3 H]PAF receptor binding to vital human blood platelets
This experiment determined the competitive interaction of the test substances (in this case PAF-antagonists) with the known interaction of the radioligand [^3 H]PAF to the same receptor.
The bonding studies were carried out on vital human thrombocytes. Blood samples from healthy donors were diluted with ACD buffer and centrifuged (15 minutes, 160×g). The platelet-rich plasma was purified by chromatography on Sepharose CL-2B (for eluting: HEPES buffer, pH 7.4, 20° C.).
Defined quantities (e.g., 800 μl) of the platelet suspension were incubated for 90 minutes at ambient temperature with:
a) a 30 pmolar [^3 H]PAF solution diluted with buffer;
b) a 30 pmolar [^3 H]PAF solution which simultaneously contains a μmolar (non-labelled) PAF solution; and
c) a 30 pmolar [^3 H]PAF solution and the solutions of the test substances (different concentrations).
Incubation a) was used to determine total binding. Incubation b) was used to determine non-specific binding.
The reaction was stopped by vacuum filtering. The filters with the blood platelets were mixed with scintillation liquid and the residual radioactivity was measured in a counter. The specific binding was obtained from the total binding minus the non-specific binding. […]

T1 sequence (P25105 whole entry): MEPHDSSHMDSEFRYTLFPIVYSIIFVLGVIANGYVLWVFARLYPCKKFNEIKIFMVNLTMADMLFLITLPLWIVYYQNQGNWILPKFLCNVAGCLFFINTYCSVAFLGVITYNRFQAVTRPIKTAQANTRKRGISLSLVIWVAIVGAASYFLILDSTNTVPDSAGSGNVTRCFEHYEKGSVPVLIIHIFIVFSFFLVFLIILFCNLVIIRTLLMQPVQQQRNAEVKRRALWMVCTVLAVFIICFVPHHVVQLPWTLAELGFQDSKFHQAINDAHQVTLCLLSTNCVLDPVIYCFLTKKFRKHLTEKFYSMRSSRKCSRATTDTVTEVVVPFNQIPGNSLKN

Compound | Ki [nM]
Cc1nnc2n1-c1sc3c(c1C(c1ccc(CCc4ccc(C(F)(F)F)cc4)cc1)=NC2C)CCC3 (racemic) [Compound 1] | 0.79
Cc1nnc2n1-c1sc3c(c1C(c1ccc(CCc4ccc(C(F)(F)F)cc4)cc1)=N[C@H]2C)CCC3 [Compound 2] | 0.47
